From ChEMBL document CHEMBL4831550, “Fusidane-Type Antibiotics from the Marine-Derived Fungus Simplicillium sp. SCSIO 41513” (2021)
Values after ≈ are worked out from the molar mass of the structure shown.

System: Staphylococcus aureus
Experiment: Antibacterial activity against Staphylococcus aureus ATCC 6538 assessed as inhibition of bacterial growth incubated for 24 hrs by CLSI based microdilution method
Type: functional

MIC99.9 [mg/L]	Compound
>100	C/C(=C\CCC1=C2[C@H](C[C@@]3(C)[C@H]2C[C@@H](O)[C@H]2[C@@]4(C)CC[C@@H](O)[C@@H](CO)[C@@H]4CC[C@@]23C)OC1=O)C(=O)O
>100	C/C(=C\CCC1=C2[C@H](C[C@@]3(C)[C@H]2C[C@@H](O)[C@H]2[C@@]4(C)CC[C@@H](O)[C@@H](C)[C@@H]4CC[C@@]23C)OC1=O)CO

Second part, the compound before the results:

Compound	MIC99.9 [mg/L]
CC(=O)O[C@H]1C[C@@]2(C)[C@@H](C[C@@H](O)[C@H]3[C@@]4(C)CC[C@@H](O)[C@@H](C)[C@@H]4CC[C@@]32C)/C1=C(\CC/C=C(\C)CO)C(=O)O	2.5 (≈ 4.69 µM)
CC(=O)O[C@H]1C[C@@]2(C)[C@@H](CC(=O)[C@H]3[C@@]4(C)CC[C@@H](O)[C@@H](C)[C@@H]4CC[C@@]32C)/C1=C(\CCC=C(C)C)C(=O)O	0.078 (≈ 0.152 µM)
C/C(=C\CCC1=C2[C@H](C[C@@]3(C)[C@H]2C[C@@H](O)[C@H]2[C@@]4(C)CC[C@@H](O)[C@@H](C)[C@@H]4CC[C@@]23CO)OC1=O)C(=O)O	>100
C/C(=C\CCC1=C2[C@H](C[C@@]3(C)[C@H]2C[C@@H](O)[C@H]2[C@@]4(C)CC[C@@H](O)[C@@H](C)[C@@H]4C[C@@H](O)[C@@]23C)OC1=O)C(=O)O	>100
